# From ChEMBL document CHEMBL1649459, “Analysis of cell membrane characteristics of in vitro-selected daptomycin-resistant strains of methicillin-resistant Staphylococcus aureus” (2009)
# Legend:
# Type in all cases: functional
# [1] = tested on: Staphylococcus aureus; assay: Antimicrobial activity against methicillin-resistant Staphylococcus aureus MW2 CB1118 by Etest method
# [2] = tested on: Staphylococcus aureus; assay: Antimicrobial activity against methicillin-resistant Staphylococcus aureus MW2 CB2201 after 1-day passage containing sublethal concentration of compound by Etest method; conditions: MW2 CB2201, 24 h
# [3] = tested on: Staphylococcus aureus; assay: Antimicrobial activity against methicillin-resistant Staphylococcus aureus MW2 CB2205 harboring […] MprF T345I, RpoB I953S,YycG S221P mutant after 20-day passage containing sublethal concentration of compound by Etest method; conditions: MW2 CB2205, 480 h
# [4] = tested on: Staphylococcus aureus; assay: Antimicrobial activity against methicillin-resistant Staphylococcus aureus MW2 CB2202 harboring […] MprF T345I mutant after 5-day passage containing sublethal concentration of compound by Etest method; conditions: MW2 CB2202, 120 h
# [5] = tested on: Staphylococcus aureus; assay: Antimicrobial activity against methicillin-resistant Staphylococcus aureus MW2 CB2203 harboring […] MprF T345I, RpoB I953S mutant after 14-day passage containing sublethal concentration of compound by Etest method; conditions: MW2 CB2203, 336 h
smiles,measurement,setting,value
CCCCCCCCCC(=O)N[C@@H](Cc1c[nH]c2ccccc12)C(=O)N[C@H](CC(N)=O)C(=O)N[C@@H](CC(=O)O)C(=O)N[C@@H]1C(=O)NCC(=O)N[C@@H](CCCN)C(=O)N[C@@H](CC(=O)O)C(=O)N[C@H](C)C(=O)N[C@@H](CC(=O)O)C(=O)NCC(=O)N[C@H](CO)C(=O)N[C@@H]([C@H](C)CC(=O)O)C(=O)N[C@@H](CC(=O)c2ccccc2N)C(=O)O[C@@H]1C,MIC,[1],1 µg/mL
same,MIC,[2],1.5 µg/mL
same,MIC,[3],12 µg/mL
same,MIC,[4],3 µg/mL
same,MIC,[5],6 µg/mL
